For orientation: MIC means the least concentration at which growth counts as inhibited. A word on the IC50: it is the midpoint of a concentration-inhibition curve.

Converted amounts (≈) assume the structure as drawn.

These results are taken from ChEMBL document CHEMBL5137126, “Alliacane-Type Secondary Metabolites from Submerged Cultures of the Basidiomycete Clitocybe nebularis” (J Nat Prod, 2022).

Data set [1] concerns Schizosaccharomyces pombe. In words: Antifungal activity against Schizosaccharomyces pombe DSM70572 assessed as inhibition of fungal growth incubated for 48 hrs by serial dilution method. It counts as functional.
The next data set concerns Mucor hiemalis. The experiment in a line: Antifungal activity against Mucor hiemalis DSM2656 assessed as inhibition of fungal growth incubated overnight by serial dilution method. It counts as functional.
Another data set relates to KB 3-1. The experiment in a line: Cytotoxicity against human KB 3-1 cells assessed as inhibition of cell growth incubated for 5 days by MTT assay. It is filed as functional, cell-based. As to conditions: KB 3-1, 120 h.
Data set [2] in a line: Cytotoxicity against mouse L929 cells assessed as inhibition of cell growth incubated for 5 days by MTT assay. It counts as toxicity, cell-based.
The next data set relates to Bacillus subtilis. In words: Antibacterial activity against Bacillus subtilis DSM 10 assessed as inhibition of bacterial growth incubated overnight by serial dilution method. It is filed as functional.
Another data set concerns Wickerhamomyces anomalus. The experiment in a line: Antifungal activity against Pichia anomala DSM6766 assessed as inhibition of fungal growth incubated overnight by serial dilution method. It is filed as functional.
Another data set relates to Candida albicans. In words: Antifungal activity against Candida albicans DSM1665 assessed as inhibition of fungal growth incubated overnight by serial dilution method. It counts as functional.
The next data set has as its system Rhodotorula glutinis. The experiment in a line: Antifungal activity against Rhodotorula glutinis DSM10134 assessed as inhibition of fungal growth incubated for 48 hrs by serial dilution method. It counts as functional.
The test system of the next data set is L929. In words: Cytotoxicity against mouse L929 cells assessed as inhibition of cell growth at 0.0006 to 0.037 ug/ml incubated for 5 days by MTT assay. It counts as toxicity, cell-based. Conditions: l929, 120 h, dose 0.0006-0.037 µg/ml, time 5 day.
The test system of another data set is A-431. The experiment in a line: Cytotoxicity against human A-431 cells assessed as inhibition of cell growth incubated for 5 days by MTT assay. It is filed as functional, cell-based. Conditions: A-431, 120 h.
The subject of a further data set is A549. The experiment in a line: Cytotoxicity against human A549 cells assessed as inhibition of cell growth incubated for 5 days by MTT assay. It counts as functional, cell-based. Conditions: A549, 120 h.
A further data set concerns SK-OV-3. In words: Cytotoxicity against human SK-OV-3 cells assessed as inhibition of cell growth incubated for 5 days by MTT assay. It counts as functional, cell-based. Conditions: SK-OV-3, 120 h. (In general: Tetrazolium dyes change colour on reduction, which living cells bring about.)
The next data set concerns PC-3. The experiment in a line: Cytotoxicity against human PC-3 cells assessed as inhibition of cell growth incubated for 5 days by MTT assay. It counts as functional, cell-based. As to conditions: PC-3, 120 h.
The subject of the next data set is MCF7. The experiment in a line: Cytotoxicity against human MCF7 cells assessed as inhibition of cell growth incubated for 5 days by MTT assay. Conditions: MCF7, 120 h. It is filed as functional, cell-based.

On to `Cc1cc2[nH]cc(C=O)c2c2c1CC(C)(C)C2`, for which the MIC in [1] amounted to 33.3 µg/mL (≈ 146 µM); with Mucor hiemalis, 16.6 µg/mL (≈ 73 µM); in the data set on Bacillus subtilis, 66.6 µg/mL (≈ 293 µM); with Wickerhamomyces anomalus (Hansenula anomala), 33.3 µg/mL (≈ 146 µM); with Candida albicans, 66.6 µg/mL (≈ 293 µM); in the data set on Rhodotorula glutinis, 4.2 µg/mL (≈ 18.5 µM). Besides, in the data set on KB 3-1, the IC50 was 21 µM. In addition, the IC50 at 5 days in [2] was determined as 41 µM.

Regarding `C[C@@H]1C(=O)c2occ(CO)c2[C@]2(O)CC(C)(C)C[C@H]12`, the Activity entry in the data set with L929 is listed as “Non-Toxic”.

As for `C=C(C(=O)O)C1=C2CC(C)(C)C[C@@H]2[C@H](C)CC1=O`, the Activity entry in the data set on L929 is recorded as “Non-Toxic”.

Turning to `CN(C)[C@@H]1C(O)=C(C(N)=O)C(=O)[C@@]2(O)C(O)=C3C(=O)c4c(O)cccc4[C@@](C)(O)[C@H]3[C@H](O)[C@@H]12` [OXYTETRACYCLINE], the MIC in the data set with Bacillus subtilis stood at 9.2 µg/mL (≈ 20 µM).

On to `C/C(=C\c1csc(C)n1)[C@H]1C[C@H]2O[C@@]2(C)CCC[C@H](C)[C@@H](O)[C@@H](C)C(=O)C(C)(C)[C@H](O)CC(=O)O1`, for which the IC50 with A-431 was determined as 0.0031 µM; in the data set with A549, 0.0034 µM; in the data set on KB 3-1, 0.0028 µM; in the data set on SK-OV-3, 0.0075 µM; in the data set with PC-3 it was 0.003 µM; in the data set on MCF7, 0.0027 µM. Further, in data set [2], the IC50 at 5 days is 0.001 µM.

Take `C=C(C(=O)O)[C@]12O[C@]13CC(C)(C)C[C@@H]3[C@H](C)[C@H](O)C2=O`: the IC50 with A-431 worked out at 7 µM; in the data set with A549, 53 µM; in the data set on KB 3-1, 18 µM; in the data set on SK-OV-3 it was 20 µM; in the data set on PC-3, 36 µM; in the data set on MCF7, 8 µM. In data set [2], the IC50 at 5 days was found to be 22 µM.

Regarding `C[C@@H]1C(=O)c2[nH]cc(CO)c2C2=CC(C)(C)C[C@@H]21`, in the data set on KB 3-1, the IC50 amounted to 47 µM. In addition, the IC50 at 5 days in data set [2] was determined as 68 µM. Moreover, in the data set with Rhodotorula glutinis, the MIC was 66.6 µg/mL (≈ 271 µM).

In the case of NYSTATIN, the MIC in data set [1] is 4.2 µg/mL; in the data set on Mucor hiemalis, 9.2 µg/mL; in the data set with Wickerhamomyces anomalus, 4.6 µg/mL; in the data set with Rhodotorula glutinis it was 1 µg/mL.
